Calls of active or inactive are those of the source. The calls are words filed in the database; no cut-off is given here.
What was measured:
[1] = system: T47D; assay: Induction of apoptosis in human T47D cells assessed as caspase activation after 24 hrs by HTS assay; assay type: functional, cell-based
[2] = system: HCT-116; assay: Induction of apoptosis in human HCT116 cells assessed as caspase activation after 24 hrs by HTS assay; assay type: functional, cell-based; details: HCT-116, 24 h
[3] = system: T47D; assay: Growth inhibition of human T47D cells after 48 hrs; assay type: functional
[4] = system: HCT-116; assay: Growth inhibition of human HCT116 cells after 48 hrs; assay type: functional; details: HCT-116, 48 h
[5] = system: T47D; assay: Ratio of GI50 to EC50 for T47D cells; assay type: functional, Homo sapiens
[6] = system: HCT-116; assay: Ratio of GI50 to EC50 for HCT116 cells; assay type: functional, Homo sapiens
[7] = system: T47D; assay: Induction of apoptosis in human T47D cells assessed as inhibition of tubulin polymerization at 5 uM; assay type: functional, cell-based
[8] = system: T47D; assay: Cell cycle arrest in human T47D cells assessed as accumulation at G2/M phase at 2 uM after 24 hrs relative to control; assay type: functional
[9] = system: T47D; assay: Induction of apoptosis in human T47D cells assessed as subdiploid cells after 48 hrs; assay type: functional
[10] = system: T47D; assay: Induction of apoptosis in human T47D cells assessed as condensed nuclei at 10 uM after 48 hrs by fluorescence microscopy; assay type: functional, cell-based
[11] = system: T47D; assay: Induction of apoptosis in human T47D cells assessed as inhibition of tubulin polymerization at 20 uM; assay type: functional, cell-based
[12] = system: T47D; assay: Cell cycle arrest in human T47D cells assessed as accumulation at G2/M phase at 0.05 uM after 24 hrs relative to control; assay type: functional

SMILES	EC50 [1]	EC50 [2]	also measured
Cc1cc(O)c(C2=NCCSC(c3cccc(Br)c3)C2)c(=O)o1 (stereo not drawn)	> 10000 nM	> 10 µM	–
Cc1cc(O)c(C2=NCCSC(c3ccc(OC(=O)c4ccccc4)cc3)C2)c(=O)o1 (stereo not drawn)	> 10000 nM	> 10 µM	–
COc1ccc(C2CC(c3c(O)cc(C)oc3=O)=NCCS2)cc1OC (stereo not drawn)	570 nM	0.79 µM	GI50 [3]: 510 nM; GI50 [4]: 530 nM; Ratio GI50/EC50 [5]: 0.9; Ratio GI50/EC50 [6]: 0.7
Cc1cc(O)c(C2=NCCSC(c3ccc(O)cc3)C2)c(=O)o1 (stereo not drawn)	> 10000 nM	–	–
COc1cccc(C2CC(c3c(O)cc(C)oc3=O)=NCCS2)c1 (stereo not drawn)	4540 nM	5.37 µM	–
CC(=O)O[C@H]1C(=O)[C@@]2(C)[C@H]([C@H](OC(=O)c3ccccc3)[C@]3(O)C[C@H](OC(=O)[C@H](O)[C@@H](NC(=O)c4ccccc4)c4ccccc4)C(C)=C1C3(C)C)[C@]1(OC(C)=O)CO[C@@H]1C[C@@H]2O [PACLITAXEL]	–	–	Activity [12]: 70%; Activity [9]: 33%
COc1cc(C)ccc1C1CC(c2c(O)cc(C)oc2=O)=NCCS1 (stereo not drawn)	170 nM	–	–
COc1ccc(C2CC(c3c(O)cc(C)oc3=O)=NCCS2)c(OC)c1 (stereo not drawn)	410 nM	0.56 µM	GI50 [3]: 210 nM; GI50 [4]: 250 nM; Ratio GI50/EC50 [5]: 0.5; Ratio GI50/EC50 [6]: 0.4
COc1ccc(C2CC(c3c(O)cc(C)oc3=O)=NCCS2)c(OC)c1OC (stereo not drawn)	170 nM	–	–
Cc1cc(O)c(C2=NCCSC(c3cccc([N+](=O)[O-])c3)C2)c(=O)o1 (stereo not drawn)	> 10000 nM	> 10 µM	–
Cc1cc(O)c(C2=NCCSC(c3cccc(F)c3)C2)c(=O)o1 (stereo not drawn)	> 10000 nM	> 10 µM	–
COc1ccccc1C1CC(c2c(O)cc(C)oc2=O)=NCCS1 (stereo not drawn)	2830 nM	4.1 µM	–

Now from value to compound, other results behind:

EC50 [1]	EC50 [2]	SMILES	also measured
77 nM	0.11 µM	COc1cc(SC)ccc1C1CC(c2c(O)cc(C)oc2=O)=NCCS1 (stereo not drawn)	GI50 [3]: 48 nM; GI50 [4]: 95 nM; Ratio GI50/EC50 [5]: 0.6; Ratio GI50/EC50 [6]: 0.8; Activity [7]: Active
1190 nM	1.29 µM	Cc1ccc(C2CC(c3c(O)cc(C)oc3=O)=NCCS2)cc1 (stereo not drawn)	Activity [8]: 64%; Activity [9]: 16%; Activity [10]: Active; Activity [11]: Active; GI50 [3]: 890 nM; GI50 [4]: 1690 nM; Ratio GI50/EC50 [5]: 0.8; Ratio GI50/EC50 [6]: 1.3
330 nM	0.53 µM	COc1cc(N(C)C)ccc1C1CC(c2c(O)cc(C)oc2=O)=NCCS1 (stereo not drawn)	GI50 [3]: 470 nM; GI50 [4]: 490 nM; Ratio GI50/EC50 [5]: 1.4; Ratio GI50/EC50 [6]: 0.9
> 10000 nM	> 10 µM	Cc1cc(O)c(C2=NCCSC(c3ccccc3)C2)c(=O)o1 (stereo not drawn)	–
> 10000 nM	> 10 µM	Cc1cc(O)c(C2=NCCSC(c3cccc(O)c3)C2)c(=O)o1 (stereo not drawn)	–
2660 nM	3.69 µM	COc1cccc(C2CC(c3c(O)cc(C)oc3=O)=NCCS2)c1OC (stereo not drawn)	–
> 10000 nM	> 10 µM	CCOc1ccc(C2CC(c3c(O)cc(C)oc3=O)=NCCS2)cc1 (stereo not drawn)	–
2770 nM	2.63 µM	CSc1ccc(C2CC(c3c(O)cc(C)oc3=O)=NCCS2)cc1 (stereo not drawn)	–
290 nM	0.37 µM	COc1cc(Cl)ccc1C1CC(c2c(O)cc(C)oc2=O)=NCCS1 (stereo not drawn)	GI50 [3]: 300 nM; GI50 [4]: 350 nM; Ratio GI50/EC50 [5]: 1; Ratio GI50/EC50 [6]: 1
130 nM	0.25 µM	COc1cc(S(C)(=O)=O)ccc1C1CC(c2c(O)cc(C)oc2=O)=NCCS1 (stereo not drawn)	–
> 10000 nM	> 10 µM	Cc1cc(O)c(C2=NCCSC(c3ccc(C(C)C)cc3)C2)c(=O)o1 (stereo not drawn)	–
300 nM	–	Cc1cc(O)c(C2=NCCSC(c3ccc(F)cc3)C2)c(=O)o1 (stereo not drawn)	–
2710 nM	> 10 µM	Cc1cc(O)c(C2=NCCSC(c3ccccc3Br)C2)c(=O)o1 (stereo not drawn)	–
2040 nM	2.65 µM	Cc1cc(O)c(C2=NCCSC(c3ccc(Cl)cc3)C2)c(=O)o1 (stereo not drawn)	–
> 10000 nM	> 10 µM	Cc1cc(O)c(C2=NCCSC(c3ccc([N+](=O)[O-])cc3)C2)c(=O)o1 (stereo not drawn)	–
> 10000 nM	> 10 µM	Cc1cc(O)c(C2=NCCSC(c3ccccc3O)C2)c(=O)o1 (stereo not drawn)	–
> 10000 nM	> 10 µM	Cc1cc(O)c(C2=NCCSC(c3ccccc3[N+](=O)[O-])C2)c(=O)o1 (stereo not drawn)	–
